The values below are quoted from earlier work in patent US20050221324A1, “Genotoxicity analysis” (priority 2002, published 2005).

The data set deals with AL cells. As to conditions: producing mainly chromosomal mutations; non-genotoxic carcinogens.

Regarding arsenic, the “mutagenicity in AL cells” value is “quite strong mutagens”.
